Results on eight molecules are retold here after article PMC4240039, “Interactions of ABCG2 (BCRP) with epidermal growth factor receptor kinase inhibitors developed for molecular imaging” (Frontiers in Pharmacology, 2014).

Data set [1] has as its target T1, BCRP (Homo sapiens, UniProt Q9UNQ0).
T1 construct: expressed in transfected cells; host or cells: MDCK (MDCKII) cells, pcDNA3 vector; gift from Prof; Qingcheng Mao
T1 sequence (Q9UNQ0 1-655): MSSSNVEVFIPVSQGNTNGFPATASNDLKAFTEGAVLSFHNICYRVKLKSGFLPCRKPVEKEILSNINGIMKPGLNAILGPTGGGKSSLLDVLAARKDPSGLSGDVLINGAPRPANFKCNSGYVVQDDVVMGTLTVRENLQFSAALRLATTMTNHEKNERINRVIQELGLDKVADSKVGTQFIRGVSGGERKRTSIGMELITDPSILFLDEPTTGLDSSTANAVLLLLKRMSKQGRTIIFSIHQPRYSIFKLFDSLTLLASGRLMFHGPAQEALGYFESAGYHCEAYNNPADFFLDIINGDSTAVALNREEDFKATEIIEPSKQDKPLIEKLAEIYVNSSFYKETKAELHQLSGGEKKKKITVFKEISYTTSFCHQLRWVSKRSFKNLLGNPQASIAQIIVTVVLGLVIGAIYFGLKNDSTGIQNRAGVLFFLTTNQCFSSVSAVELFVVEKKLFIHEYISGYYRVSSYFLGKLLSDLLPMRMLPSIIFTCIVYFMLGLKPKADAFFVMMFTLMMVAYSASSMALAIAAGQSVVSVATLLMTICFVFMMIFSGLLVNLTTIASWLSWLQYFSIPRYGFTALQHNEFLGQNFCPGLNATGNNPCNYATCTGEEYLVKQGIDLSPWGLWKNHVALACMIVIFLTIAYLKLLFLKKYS
Briefly: BODIPY-prazosin accumulation assay in MDCK-BCRP cells. Type of data set: cell-based. As to conditions: 500 nM BODIPY-prazosin, 1 h incubation; test compounds 400 nM. As for the experimental part: Accumulation assays with fluorescent substrates of eﬄux transporter are commonly utilized to determine the inhibitory effect of a test compound ([Brouwer et al., 2013]). In this study, MDCK-CT and MDCK-BCRP cells were seeded at density of 20 × 10^4 cells/well in 24 well plates. Experiments were performed two days after achieving 100% confluent monolayers. Prior to the experiment, the medium was removed and cells were incubated for 1 h with one of the test compounds dissolved in DMEM with 5 mM 4-(2-Hydroxyethyl)-1-piperazineethanesulfonic acid (HEPES), pH 7.4. In the accumulation phase cells were co-incubated with 500 nM BODIPY-prazosin (a BCRP/P-gp substrate; [Dey et al., 1997]; [Ni et al., 2010]) and one of the test compounds dissolved in DMEM with 5 mM HEPES. After 1 h, the cells were washed three times with ice-cold PBS. Intracellular fluorescence intensity of BODIPY-prazosin was measured within 1 h by a plate reader (Synergy HT, BioTek, Winooski, VT, USA) with excitation wavelength 485 nm and emission wavelength 528 nm.
FIGURE 4 Effect of EGFRIs on BODIPY-prazosin accumulation. Cell protein concentration-normalized BODIPY prazosin fluorescence in MDCK-BCRP cells were evaluated in the presence and the absence of 400 nM of the tested compounds following 1 h incubation.

Data set [2] in a line: MTT cell proliferation assay, BCRP-overexpressing cells. It is filed as cell-based, canine. As to conditions: dog, MDCK-BCRP cells (MDCK cells transfected with wild-type BCRP), read-out: IC50 for inhibition of cell proliferation in MDCK-BCRP cells. As for the experimental part:
(§1) Madin-Darbey canine kidney (MDCK) cells transfected with pcDNA empty vector (MDCK-pcDNA3; MDCK-CT) and cDNA coding for wild-type BCRP (MDCK-BCRP) cells were a generous gift from Prof. Qingcheng Mao (University of Washington, Seattle, WA, USA). The human lung carcinoma cell lines A549 and HCC827 cells were provided by Prof. Eyal Mishani.
Madin-Darbey canine kidney vector (MDCK-pcDNA3) and MDCK-BCRP cells were grown in Eagle’s minimum essential medium (MEM) supplemented with 10% fetal bovine serum, 2 mM L-glutamine, 100 units/mL penicillin, and 100 μg/mL streptomycin, at 37∘C and 5% CO2-humidified incubator. The BCRP positive cells were selected by supplementation of 0.05 mg/mL gentamicin to the growth medium. The adherent cells, continuously cultivated in 10 cm^2 cell culture plates, were grown to nearly 80–90% confluence before they were harvested by trypsin-EDTA 0.25% solution. A549 were grown in Ham’s F12 growth medium and HCC827 were grown in RPMI-1640 growth medium. The cells were treated as described above.
(§2) The assay was performed as described earlier ([Rajendra et al., 2003]) with minor modifications. Briefly, Cells were seeded at density of 80 × 10^3 cells per well in 24 well plates. On the following day, the cells were incubated (in hexaplicates) with 0.2–102.4 μM of the tested EGFRIs or with the vehicle in the growth medium for 72 h. Then, the medium was removed and 300 μl of 0.5 mg/mL MTT solution in Hank’s Balanced Salt Solution (HBSS) was added to each well. After 2 h incubation at 37∘C, the MTT solution was removed and the cells were washed three times with HBSS, then the culture plates were incubated with 500 μl dimethyl sulphoxide (DMSO) for 15 min at room temperature. The absorption was detected at 540 nm using the Synergy plate reader. The proliferation of cells from MTT studies was expressed as a percent of control, DMSO-treated cells of the same type. An inhibitory sigmoidal model was fitted to the experimental data using Phoenix WinNonlin 6.3 (Pharsight, Mountain View, CA, USA).

On the set-up of data set [3]: method as in Dissoki et al., 2007. To be noted: ref Dissoki et al., 2007; cited from earlier work.
Data set [4] has as its target T2, human BCRP ATPase (Homo sapiens, UniProt Q9UNQ0).
T2 construct: purchased SOLVO Biotechnology, Szeged, Hungary; host or cells: Sf9 membrane preparations
T2 sequence (Q9UNQ0 1-655): T1 sequence (Q9UNQ0 1-655)
Description: BCRP ATPase activation assay ([…] kit, Sf9 membrane preparations). Type of data set: biochemical. As to conditions: for Activation of BCRP ATPase: 400 nM (submicromolar), Sf9 membranes containing BCRP, vanadate-sensitive ATPase activity; for BCRP ATPase activation relative to that produced by gefitinib: 400 nM, Sf9 membranes. As for the experimental part: ATPase activity was evaluated using […] kits (SOLVO Biotechnology, Szeged, Hungary), according to the manufacturer’s instructions.
FIGURE 2 Interactions of EGFRIs with BCRP ATPase. (A) Activation of BCRP-ATPase in Sf9 membrane preparations containing BCRP. Membranes were incubated with ATP and the tested compounds at 400 nM in the presence and absence of sodium orthovanadate. (B) Inhibition of sulfasalazine-stimulated BCRP-ATPase. The effect of EGFRIs was evaluated in sulfasalazine (10 μM)-stimulated membranes. Data are presented as means ± SD of the vanadate-sensitive ATPase activity from two experiments in duplicates.

Data set [5] concerns P-gp. Further details: method as in Abourbeh et al., 2007. To be noted: ref Abourbeh et al., 2007; cited from earlier work.
Data set [6] concerns MDCK-CT cells. Description: MTT cell proliferation assay, vector control cells. As to conditions: Canis lupus familiaris, 72 h, read-out: IC50 for inhibition of control cell proliferation. Type of data set: cell-based, canine. As for the experimental part:
as §1
Madin-Darbey canine kidney vector (MDCK-pcDNA3) and MDCK-BCRP cells were grown in Eagle’s minimum essential medium (MEM) supplemented with 10% fetal bovine serum, 2 mM L-glutamine, 100 units/mL penicillin, and 100 μg/mL streptomycin, at 37∘C and 5% CO2-humidified incubator. The BCRP positive cells were selected by supplementation of 0.05 mg/mL gentamicin to the growth medium. […] The cells were treated as described above.
as §2, with “Briefly,” for “The assay was performed as described earlier ([Rajendra et al., 2003]) with minor modifications. Briefly,”, “On the following day, the cells were incubated (in hexaplicates) with 0.2–102.4 μM of the tested EGFRIs or with the vehicle in the growth medium for 72 h.” left out

The subject of data set [7] is EGFR. On the set-up: method as in earlier work. As to conditions: A431 cell lysates; ref Shaul et al., 2004; Mishani et al., 2005; Dissoki et al., 2007; read-out: EGFR binding potency IC50; cited from earlier work.

Consider `COc1ccc2c3c([nH]c2c1)[C@H](C=C(C)C)N1C(=O)[C@@H]2CCCN2C(=O)[C@@H]1C3` [FTC, fumitremorgin C], for which the “BODIPY-prazosin accumulation in MDCK-BCRP cells” value in data set [1] is listed as “significantly (p < 0.01) enhanced”.
As for `CN(C)C/C=C/C(=O)Nc1ccc2ncnc(Nc3cc(Cl)c(Cl)cc3F)c2c1` [ML04], the IC50 at 72 h in data set [2] was above 50000 nM. Besides, the “Log P” value in data set [3] is recorded as 3.9. For the same molecule, the “Activation of BCRP ATPase” value in data set [4] is given as “activated BCRP ATPase”. For the same molecule, in data set [5], the P-gp substrate status entry is “found to be a P-gp substrate”. For the same molecule, the IC50 in data set [6] was determined as 2100 ± 600 nM.
For `O=C(CCl)Nc1ccc2ncnc(Nc3cc(Cl)c(Cl)cc3F)c2c1` [ML05], the IC50 in data set [7] was 10 nM. In data set [3], the “Log P” value is 4.12. In addition, in data set [4], the “Activation of BCRP ATPase” value is given as “activated BCRP ATPase” and the “BCRP ATPase activation relative to that produced by gefitinib” value is given as at most 40%.
On to `CN(C)C/C=C/C(=O)Nc1ccc2ncnc(Nc3cccc(I)c3)c2c1` [ML06], for which the IC50 at 72 h in data set [2] is above 50000 nM. In data set [7], the IC50 was 0.05 to 5 nM. Besides, in data set [4], the “Activation of BCRP ATPase” value is “activated BCRP ATPase” and the “BCRP ATPase activation relative to that produced by gefitinib” value is given as at most 40%. The IC50 in data set [6] was found to be 2200 ± 700 nM.
On to `O=C(/C=C/CN(CCO)CCO)Nc1cc2c(Nc3cc(Cl)c(Cl)cc3F)ncnc2cc1OCCOCCOCCOCCF` [ML10], for which, in data set [4], the “Activation of BCRP ATPase” value was “no activating effect”.
On to `O=C(CCl)Nc1cc2c(Nc3cc(Cl)c(Cl)cc3F)ncnc2cc1OCCOCCOCCOCCOCCOCCF` [PEG6-ML05], for which the IC50 at 72 h in data set [2] is above 50000 nM. For the same molecule, the IC50 is 30 to 45 nM in data set [7] and 2800 ± 3100 nM in data set [6]. For the same molecule, the log partition coefficient (Log P) in data set [3] is on record as 4.75. Also, in data set [4], the “Activation of BCRP ATPase” value is given as “no activating effect”.
Regarding `COCC(=O)Nc1ccc2ncnc(Nc3cccc(Br)c3)c2c1` [methoxy-Br-ML03, N-{4-[(3-Bromo-phenyl)amino]-quinazoline-6-yl}-2-methoxyacetamide], in data set [2], the IC50 at 72 h is above 50000 nM. Also, the “Activation of BCRP ATPase” value in data set [4] is recorded as “activated BCRP ATPase”. Also, the IC50 in data set [6] was 1800 ± 1200 nM.
`COCC(=O)Nc1ccc2ncnc(Nc3cc(Cl)c(Cl)cc3F)c2c1` [methoxy-ML03]: the IC50 in data set [7] was 252 nM. Further, in data set [4], the “Activation of BCRP ATPase” value was “activated BCRP ATPase”.
